Data on 14 compounds can be found in ChEMBL document CHEMBL4616590, “Therapeutic significance of β-glucuronidase activity and its inhibitors: A review” (Eur J Med Chem, 2020).

Data set [1] is described as follows: Inhibition of Staphylococcus aureus beta-glucuronidase.
Data set [2] in a line: Inhibition of Clostridium perfringens beta-glucuronidase.
Data set [3] deals with T1, Beta-glucuronidase (Homo sapiens, UniProt P08236).
T1 sequence (P08236 whole entry): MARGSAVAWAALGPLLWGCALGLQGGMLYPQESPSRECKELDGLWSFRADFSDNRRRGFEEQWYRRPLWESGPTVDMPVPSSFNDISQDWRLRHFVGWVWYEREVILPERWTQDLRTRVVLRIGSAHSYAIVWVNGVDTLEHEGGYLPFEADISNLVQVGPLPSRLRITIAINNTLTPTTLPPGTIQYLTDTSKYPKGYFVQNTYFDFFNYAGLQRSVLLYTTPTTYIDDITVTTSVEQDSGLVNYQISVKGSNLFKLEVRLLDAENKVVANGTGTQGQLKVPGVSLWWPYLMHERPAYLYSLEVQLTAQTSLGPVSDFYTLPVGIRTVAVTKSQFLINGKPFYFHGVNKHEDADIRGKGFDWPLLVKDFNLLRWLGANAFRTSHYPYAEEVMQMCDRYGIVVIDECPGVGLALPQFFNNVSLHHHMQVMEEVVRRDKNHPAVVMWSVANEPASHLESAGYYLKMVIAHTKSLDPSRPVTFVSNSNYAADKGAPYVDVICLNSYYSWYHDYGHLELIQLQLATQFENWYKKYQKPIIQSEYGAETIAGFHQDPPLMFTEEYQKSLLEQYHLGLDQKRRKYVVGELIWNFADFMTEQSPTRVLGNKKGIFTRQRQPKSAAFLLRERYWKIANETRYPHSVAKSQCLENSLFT
Briefly: Inhibition of beta-glucuronidase (unknown origin) using p-nitrophenyl-beta-d-glucuronide as substrate after 30 mins.

Data set [4] can be described thus: Inhibition of bovine liver beta-glucuronidase using p-nitrophenyl-beta-d-glucuronide as substrate after 30 mins by spectrophotometric analysis. Set-up: species or system Bos taurus.
Data set [5] can be described thus: Inhibition of bovine liver beta-glucuronidase using p-nitrophenyl-beta-D-glucuronide as substrate after 30 mins. Set-up: species or system Bos taurus.
The nature of data set [6]: Inhibition of Escherichia coli K-12 beta-glucuronidase using PNPG as substrate preincubated for 5 mins followed by substrate addition measured after 30 mins.
Data set [7] deals with T2, Beta-glucuronidase (Mus musculus) (UniProt P12265).
T2 sequence (whole entry): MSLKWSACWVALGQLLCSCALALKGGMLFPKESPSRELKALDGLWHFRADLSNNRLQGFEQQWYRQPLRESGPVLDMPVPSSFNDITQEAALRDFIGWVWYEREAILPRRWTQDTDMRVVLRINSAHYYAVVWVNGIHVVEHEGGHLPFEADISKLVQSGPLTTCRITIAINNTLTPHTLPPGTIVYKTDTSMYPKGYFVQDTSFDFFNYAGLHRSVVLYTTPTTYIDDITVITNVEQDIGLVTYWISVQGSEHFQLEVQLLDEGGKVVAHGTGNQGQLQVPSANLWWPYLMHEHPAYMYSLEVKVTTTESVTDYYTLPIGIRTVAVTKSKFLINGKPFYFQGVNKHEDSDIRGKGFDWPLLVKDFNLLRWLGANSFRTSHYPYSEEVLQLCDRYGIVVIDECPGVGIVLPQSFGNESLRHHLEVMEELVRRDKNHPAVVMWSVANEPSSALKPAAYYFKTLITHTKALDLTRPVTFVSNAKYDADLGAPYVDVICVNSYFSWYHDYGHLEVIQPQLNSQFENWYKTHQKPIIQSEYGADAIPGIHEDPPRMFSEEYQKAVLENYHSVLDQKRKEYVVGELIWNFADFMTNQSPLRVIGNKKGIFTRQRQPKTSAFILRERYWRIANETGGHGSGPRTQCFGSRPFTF
Put plainly: In-vivo inhibition of ICR mouse beta-glucuronidase at 20 mg/kg, sc after 10 weeks relative to DMH alone. It is filed as functional, organism-based.

In data set [8] the target is T2, Beta-glucuronidase (Mus musculus). Briefly: In-vivo inhibition of ICR mouse beta-glucuronidase at 60 mg/kg, sc after 10 weeks relative to DMH alone. It is filed as functional, organism-based.
The target of data set [9] is T3, Beta-glucuronidase (Escherichia coli (strain K12), UniProt P05804). Put plainly: Inhibition of Escherichia coli beta-glucuronidase.
T3 sequence (P05804 whole entry): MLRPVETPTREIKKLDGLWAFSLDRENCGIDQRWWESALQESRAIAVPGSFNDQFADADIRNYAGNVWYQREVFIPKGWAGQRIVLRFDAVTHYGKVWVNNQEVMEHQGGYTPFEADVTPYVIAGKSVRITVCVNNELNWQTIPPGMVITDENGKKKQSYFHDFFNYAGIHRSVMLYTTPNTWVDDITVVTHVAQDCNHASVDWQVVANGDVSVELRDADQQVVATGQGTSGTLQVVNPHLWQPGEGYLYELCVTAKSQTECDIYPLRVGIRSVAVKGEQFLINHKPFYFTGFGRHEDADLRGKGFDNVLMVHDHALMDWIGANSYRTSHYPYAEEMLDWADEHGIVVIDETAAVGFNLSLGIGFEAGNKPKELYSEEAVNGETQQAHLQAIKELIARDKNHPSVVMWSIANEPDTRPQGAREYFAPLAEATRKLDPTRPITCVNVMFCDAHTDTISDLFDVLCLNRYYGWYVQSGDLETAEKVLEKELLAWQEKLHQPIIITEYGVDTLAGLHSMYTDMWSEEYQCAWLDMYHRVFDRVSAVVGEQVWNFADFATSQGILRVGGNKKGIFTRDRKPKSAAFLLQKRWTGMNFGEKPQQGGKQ
Data set [10] has as its target Beta-glucuronidase (Escherichia coli (strain K12)) (UniProt P05804). Briefly: Inhibition of Escherichia coli beta-glucuronidase at 1 mM relative to control.
Data set [11] deals with T2, Beta-glucuronidase (Mus musculus). Put plainly: In vivo inhibition of beta-glucuronidase in OF1 mouse at 10 mg/kg, po after 8 days relative to control. It counts as functional, organism-based.
Data set [12] deals with T4, Beta-glucuronidase (Homo sapiens) (UniProt P08236).
T4 sequence (whole entry): T1 sequence (P08236 whole entry)
Put plainly: Inhibition of beta-glucuronidase (unknown origin) at 1 mM relative to control.

A short description of data set [13]: Selectivity index, ratio of IC50 for beta-glucuronidase (unknown origin) to IC50 for Escherichia coli beta-glucuronidase.
For data set [14], the target named is T4, Beta-glucuronidase (Homo sapiens). The note with it: 10 mg/ml.
A short description of data set [15]: Inhibition of bovine liver beta-glucuronidase using 4-nitrophenyl b-D-glucuronopyranoside as substrate after 30 mins. Set-up: species or system Bos taurus.
The nature of data set [16]: Inhibition of bovine liver beta-glucuronidase using 4-nitrophenyl beta-D-glucuronopyranoside as substrate preincubated for 30 mins followed by substrate addition measured after 10 to 20 mins by e Lineweaver-Burk plot analysis. Set-up: species or system Bos taurus.
Data set [17] is described as follows: Inhibition of bacterial beta-glucuronidase. Set-up: species or system Bacteria.
Data set [18] addresses T3, Beta-glucuronidase. Put plainly: Inhibition of Escherichia coli beta-glucuronidase using p-nitrophenyl-beta-D-glucuronide as substrate.
Data set [19] concerns the target T5, Beta-glucuronidase (Mus musculus, UniProt P12265).
T5 sequence (P12265 whole entry): T2 sequence (whole entry)
Briefly: In-vivo inhibition of beta-glucuronidase in BALB/CJ mouse at 10 ug administered as twice daily. It counts as functional.

Data set [20] can be described thus: Half life in BALB/CJ mouse at 10 ug administered as twice daily. It is filed as ADME. The note with it: in vivo.

Sequence of Beta-glucuronidase (Escherichia coli (strain K12)) (P05804 whole entry, looked up): as the sequence (P05804 whole entry) above

A word on the IC50: it is the point on the concentration scale where inhibition reaches its midpoint. As to `c1nc(N2CCNCC2)c2sc3nc(N4CCOCC4)ccc3c2n1`, the half-inhibitory concentration (IC50) in [1] is 690 nM; in data set [2], 53 nM. Take `CNc1nc2sc3c(N4CCNCC4)nnnc3c2c2c1CCCC2`: the figures for the IC50 in data set [1] and in data set [2] were 39 nM and 180 nM, respectively.

`CC(=O)c1ccc(Nc2cc(C)nc3ccccc23)cc1` showed a 50% inhibitory concentration (IC50) against Beta-glucuronidase [3] of 4000 nM. With `Oc1ccccc1-c1nc2cc(Cl)cc(Cl)c2[nH]1`, the IC50 in data set [4] and in data set [5] was 4480 nM each time.

One may read the inhibition as the change of the read-out against control, counted positive when it falls. A lower inhibition goes with a response near the control. Compound `O=c1cc(-c2ccc(O)c(O)c2)oc2cc(O)cc(O)c12` [LUTEOLIN] came in with an IC50 in data set [6] of 8680 nM. The inhibition worked out at 14.9% in [7] and 21.3% in data set [8].

`CC(=O)N[C@H]1[C@@H](O)[C@H](O)[C@H](CO)N[C@@H]1Cc1ccccc1`: it took 90700 nM to reach half-maximal inhibition against Beta-glucuronidase [9] (IC50). In data set [10], this compound returned an inhibition of 37.2%. `C[C@]12C=CC(=O)C=C1CC[C@H]1[C@@H]3C[C@@H](O)[C@](O)(C(=O)CO)[C@@]3(C)C[C@H](O)[C@@]12F` returned an inhibition in data set [11] of 94.1%. Consider `COc1ccc(C[C@@H]2CCC[C@@H]3[C@H](O)[C@@H](O)[C@H](CO)N23)cc1`, for which the inhibition in [12] is < 50%. In data set [13], the Ratio IC50 is 7.

For `O=C(O)c1ccccc1O`, the inhibition in data set [12] is 82%; in data set [14], 92.9%.

Broadly, the Ki is a measure of affinity in units of concentration, obtained from inhibition or displacement. High values mean weaker binding, low ones tighter binding. `O=C(O)[C@@H]1[C@@H](O)[C@H](O)[C@@H](O)c2nnnn21` returned an IC50 in data set [15] of 25000 nM. In data set [16], this compound returned an inhibition constant Ki of 25 nM. As for `CCOc1ccccc1-c1nc2ccccc2c(=O)[nH]1`, the IC50 in [17] came to 1900 nM. As for `CC1(C)CCC2(C(=O)O)CC[C@]3(C)C(=CC[C@@H]4[C@@]5(C)[C@H](O)C[C@H](O)[C@@](C)(CO)[C@@H]5CC[C@]43C)[C@@H]2C1` (some centres undefined), at Beta-glucuronidase [18], the half-maximal inhibitory concentration (IC50) was determined as 63000 nM. That is a double-digit micromolar value. What is called half-life is the time needed for the level to fall by half in the phase considered. A higher half-life goes with slow decline. At Beta-glucuronidase [19], `CCOc1ccc(NC(=S)N(CCO)Cc2cc3cc(C)cc(C)c3[nH]c2=O)cc1` came in with a half-maximal inhibitory concentration (IC50) of 164 nM. The half-life in data set [20] is < 1 h. For the compound `COc1ccc(-c2nc(O)c3ccccc3n2)cc1OC`, the IC50 in data set [17] is 1900 nM. This lies in the single-digit micromolar range.
